Experimental findings from patent publication US4698352A, “4-oxo-1,4-dihydronicotinic acid derivatives, salts thereof, and antibacterial agents containing the same” (Toyama Chemical Co., Ltd., priority 1982, dated 1987) are described below.

The structures appear in SMILES notation. Values after ≈ are worked out from the molar mass of the structure shown. Where two headings read alike, the source gives them in different places.

By MIC is commonly meant the smallest concentration in the dilution series that meets the test's criterion for growth inhibition.

Common to all, as to assay: Antibacterial activity (MIC), agar dilution
Common to all, as to assay type: cell-based
(In general: In agar dilution the substance is mixed into plates at graded concentrations.)

One test deals with Aci. antitratus A-6. The following applies: 20 h, Aci. antitratus A-6; 10^6 cells per ml; 37° C., 20 hours; read-out: MIC. The source says:
(§1) The amount of bacteria inoculated was 10^4 cells per plate (10^6 cells per ml).

The subject of another test is E. coli NIHJ JC-2. To be noted: Escherichia coli, NIHJJC2, 20 h.
Excerpt: as §1

The test system of a further test is E. coli TK-111. The following applies: Escherichia coli, TK111, 20 h, E. coli TK-111; 10^6 cells per ml; 37° C., 20 hours; read-out: MIC.
Excerpt: as §1

For another test, the system named is Ent. cloacae IID977. The following applies: Enterobacter cloacae, IID977, 20 h.
Excerpt: as §1

In the next test the test system is Kl. pneumoniae Y-41. The following applies: Klebsiella pneumoniae, Y41, 10^6 cells per ml, 37° C., 20 hours, read-out: MIC.
Excerpt: as §1

A further test has as its system Kl. pneumoniae Y-50. The following applies: Klebsiella pneumoniae, Y50, 20 h, 10^6 cells per ml, 37° C.
Excerpt: as §1

For another test, the system named is Pro. mirabilis T-111. To be noted: Proteus mirabilis, 37° C.
Excerpt: as §1

In the next test the test system is Pro. morganii T-216. To be noted: Morganella morganii, 37° C.
Excerpt: as §1

The next test relates to Pro. vulgaris GN3027. The following applies: Proteus vulgaris, GN3027, 20 h, Pro. vulgaris GN3027; 10^6 cells per ml; 37° C., 20 hours; read-out: MIC.
Excerpt: as §1

In another test the test system is Ps. aeruginosa IFO3445. To be noted: Pseudomonas aeruginosa; Ps. aeruginosa IFO3445; 10^6 cells per ml; 37° C., 20 hours; read-out: MIC.
Excerpt: as §1

Another test deals with Ps. aeruginosa S-68. To be noted: Pseudomonas aeruginosa, S68; Ps. aeruginosa S-68; 10^6 cells per ml; 37° C., 20 hours; read-out: MIC.
Excerpt: as §1

The test system of a further test is St. aureus FDA209P. The following applies: Staphylococcus aureus, FDA209P, 20 h.
Excerpt: as §1

The next test deals with E. coli TK-3*. To be noted: Escherichia coli, 20 h, E. coli TK-3, penicillinase-producing; 10^6 cells per ml; read-out: MIC.
Excerpt: as §1
(§2) * Penicillinase-producing bacteria

Another test has as its system Kl. pneumoniae Y-4*. To be noted: Klebsiella pneumoniae, 20 h, Kl. pneumoniae Y-4, penicillinase-producing; 10^6 cells per ml; read-out: MIC.
Excerpt: as §1, §2

A further test has as its system Ps. aeruginosa GN3379*. To be noted: Pseudomonas aeruginosa, 20 h; Ps. aeruginosa GN3379, penicillinase-producing; 10^6 cells per ml; read-out: MIC.
Excerpt: as §1, §2

In the next test the test system is St. aureus F-137*. To be noted: Staphylococcus aureus, 20 h.
Excerpt: as §1, §2

In another test the test system is E. coli GN5482**. The following applies: Escherichia coli, 20 h; E. coli GN5482, cephalospolinase-producing; 10^6 cells per ml; read-out: MIC.
Excerpt: as §1
(§3) ** Cephalospolinase-producing bacteria

A further test concerns Pro. vulgaris GN76**. The following applies: Proteus vulgaris.
Excerpt: as §1, §3

The next test has as its system Ps. aeruginosa GN918**. The following applies: Pseudomonas aeruginosa, 20 h; Ps. aeruginosa GN918, cephalospolinase-producing; 10^6 cells per ml; read-out: MIC.
Excerpt: as §1, §3

[1] abbreviates: Ent. cloacae IID977, 10^6 cells per ml, 37° C., 20 hours, read-out: MIC.
Setting [2] is: St. aureus FDA209P, 10^6 cells per ml, 37° C., 20 hours, read-out: MIC.
Setting [3] is: St. aureus F-137, penicillinase-producing, 10^6 cells per ml, read-out: MIC.
Setting [4] is: 20 h, Pro. vulgaris GN76, cephalospolinase-producing, 10^6 cells per ml, read-out: MIC.
[5] abbreviates: T111, 10^6 cells per ml, 20 hours, read-out: MIC.
The mark [6] stands for this setting: T216, 10^6 cells per ml, 20 hours, read-out: MIC.

In the case of `Cc1cc(O)ccc1-n1cc(C(=O)O)c(=O)cc1C1CCCCC1` [drawing 12], the MIC in the test with Aci. antitratus A-6 was 0.78 µg/mL (≈ 2.38 µM); in the test with E. coli NIHJ JC-2 it was 1.56 µg/mL (≈ 4.77 µM); with E. coli TK-111, 0.78 µg/mL (≈ 2.38 µM); with Ent. cloacae IID977 (setting [1]), 3.13 µg/mL (≈ 9.56 µM); with Kl. pneumoniae Y-41, 6.25 µg/mL (≈ 19.1 µM); with Kl. pneumoniae Y-50 (read-out: MIC), 1.56 µg/mL (≈ 4.77 µM). The minimum inhibitory concentration (MIC) against Pro. mirabilis T-111 (T111, 20 h, 10^6 cells per ml) is 12.5 µg/mL (≈ 38.2 µM); with Pro. morganii T-216 (T216, 20 h, 10^6 cells per ml), 6.25 µg/mL (≈ 19.1 µM); in the test on Pro. vulgaris GN3027 it was 0.2 µg/mL (≈ 0.611 µM); in the test with Ps. aeruginosa IFO3445, 50 µg/mL (≈ 153 µM); with Ps. aeruginosa S-68 it was 50 µg/mL (≈ 153 µM); in the test with St. aureus FDA209P (setting [2]), 0.78 µg/mL (≈ 2.38 µM). Further, the MIC in the test on E. coli TK-3* was 3.13 µg/mL (≈ 9.56 µM); in the test on Kl. pneumoniae Y-4* it was 12.5 µg/mL (≈ 38.2 µM); in the test on Ps. aeruginosa GN3379*, greater than 100 µg/mL; in the test on St. aureus F-137* (setting [3]), 0.78 µg/mL (≈ 2.38 µM); with E. coli GN5482** it was 0.1 µg/mL (≈ 0.305 µM); in the test with Pro. vulgaris GN76** (setting [4]) it was 3.13 µg/mL (≈ 9.56 µM). In addition, in the test on Ps. aeruginosa GN918**, the MIC came out at 3.13 µg/mL (≈ 9.56 µM).

Turning to `O=C(O)c1cn(-c2ccc(F)cc2)c(C=Cc2cccnc2)cc1=O` [drawing 205], the MIC in the test on Aci. antitratus A-6 was determined as 3.13 µg/mL (≈ 9.31 µM); in the test on E. coli NIHJ JC-2 (E. coli NIHJ JC-2, 10^6 cells per ml, 37° C., 20 hours, read-out: MIC), 1.56 µg/mL (≈ 4.64 µM); in the test on E. coli TK-111 it was 0.78 µg/mL (≈ 2.32 µM); in the test on Ent. cloacae IID977 (setting [1]), 3.13 µg/mL (≈ 9.31 µM); with Kl. pneumoniae Y-41 it was 6.25 µg/mL (≈ 18.6 µM); in the test with Kl. pneumoniae Y-50 it was 0.78 µg/mL (≈ 2.32 µM). The MIC in the test with Pro. mirabilis T-111 (setting [5]) is 12.5 µg/mL (≈ 37.2 µM); in the test with Pro. morganii T-216 (T216, 20 h, 10^6 cells per ml), 6.25 µg/mL (≈ 18.6 µM); with Pro. vulgaris GN3027 it was 0.39 µg/mL (≈ 1.16 µM); in the test on Ps. aeruginosa IFO3445, 25 µg/mL (≈ 74.3 µM); in the test on Ps. aeruginosa S-68, 12.5 µg/mL (≈ 37.2 µM); in the test on St. aureus FDA209P (setting [2]), 3.13 µg/mL (≈ 9.31 µM). Moreover, the MIC in the test with E. coli TK-3* was 3.13 µg/mL (≈ 9.31 µM); with Kl. pneumoniae Y-4*, 6.25 µg/mL (≈ 18.6 µM); in the test with Ps. aeruginosa GN3379* it was 25 µg/mL (≈ 74.3 µM); in the test on St. aureus F-137* (setting [3]), 3.13 µg/mL (≈ 9.31 µM); in the test with E. coli GN5482** it was 0.2 µg/mL (≈ 0.595 µM); with Pro. vulgaris GN76** (setting [4]), 1.56 µg/mL (≈ 4.64 µM). Further, in the test with Ps. aeruginosa GN918**, the MIC is 12.5 µg/mL (≈ 37.2 µM).

As for `O=C(O)c1cn(-c2ccc(F)cc2)c(-c2ccc(N=Cc3ccc([N+](=O)[O-])o3)cc2)cc1=O`, the MIC in the test on Aci. antitratus A-6 turned out to be 3.13 µg/mL (≈ 7 µM); with E. coli NIHJ JC-2, 1.56 µg/mL (≈ 3.49 µM); in the test on E. coli TK-111, 0.78 µg/mL (≈ 1.74 µM); with Ent. cloacae IID977, 6.25 µg/mL (≈ 14 µM); in the test on Kl. pneumoniae Y-41 it was 6.25 µg/mL (≈ 14 µM); in the test with Kl. pneumoniae Y-50 (read-out: MIC), 1.56 µg/mL (≈ 3.49 µM). In addition, the MIC with Pro. mirabilis T-111 (setting [5]) came to 12.5 µg/mL (≈ 27.9 µM); with Pro. morganii T-216 (setting [6]) it was 3.13 µg/mL (≈ 7 µM); in the test with Pro. vulgaris GN3027, 0.39 µg/mL (≈ 0.872 µM); in the test with Ps. aeruginosa IFO3445 it was 25 µg/mL (≈ 55.9 µM); in the test on Ps. aeruginosa S-68 it was 25 µg/mL (≈ 55.9 µM); against St. aureus FDA209P, 6.25 µg/mL (≈ 14 µM). Further, the minimum inhibitory concentration (MIC) stood at 3.13 µg/mL (≈ 7 µM) in the test on E. coli TK-3*; 25 µg/mL (≈ 55.9 µM) with Kl. pneumoniae Y-4*; 50 µg/mL (≈ 112 µM) with Ps. aeruginosa GN3379*; 6.25 µg/mL (≈ 14 µM) in the test with St. aureus F-137*; 0.39 µg/mL (≈ 0.872 µM) with E. coli GN5482**; 1.56 µg/mL (≈ 3.49 µM) with Pro. vulgaris GN76** (GN76, 20 h). Further, the MIC in the test with Ps. aeruginosa GN918** was found to be 25 µg/mL (≈ 55.9 µM).

On to `CC(=O)Oc1ccc(-n2cc(C(=O)OCC(O)CO)c(=O)cc2-c2ccc(N(C)C)cc2)cc1` (stereo not shown), for which the minimum inhibitory concentration (MIC) worked out at 1.56 µg/mL (≈ 3.34 µM) in the test with Aci. antitratus A-6; 3.13 µg/mL (≈ 6.71 µM) in the test on E. coli NIHJ JC-2; 0.78 µg/mL (≈ 1.67 µM) in the test with E. coli TK-111; 6.25 µg/mL (≈ 13.4 µM) in the test with Ent. cloacae IID977 (setting [1]); 25 µg/mL (≈ 53.6 µM) in the test on Kl. pneumoniae Y-41; 3.13 µg/mL (≈ 6.71 µM) with Kl. pneumoniae Y-50 (read-out: MIC). The minimum inhibitory concentration (MIC) with Pro. mirabilis T-111 (setting [5]) came to 25 µg/mL (≈ 53.6 µM); in the test with Pro. morganii T-216 (setting [6]) it was 12.5 µg/mL (≈ 26.8 µM); in the test on Pro. vulgaris GN3027, 0.78 µg/mL (≈ 1.67 µM); with Ps. aeruginosa IFO3445, 50 µg/mL (≈ 107 µM); in the test with Ps. aeruginosa S-68, 25 µg/mL (≈ 53.6 µM); with St. aureus FDA209P (setting [2]) it was 1.56 µg/mL (≈ 3.34 µM). The MIC in the test with E. coli TK-3* worked out at 6.25 µg/mL (≈ 13.4 µM); in the test on Kl. pneumoniae Y-4* it was 25 µg/mL (≈ 53.6 µM); in the test with Ps. aeruginosa GN3379*, 50 µg/mL (≈ 107 µM); in the test on St. aureus F-137* (setting [3]), 1.56 µg/mL (≈ 3.34 µM); in the test on E. coli GN5482**, 0.1 µg/mL (≈ 0.214 µM); with Pro. vulgaris GN76** (setting [4]), 6.25 µg/mL (≈ 13.4 µM). In the test on Ps. aeruginosa GN918**, the MIC is 12.5 µg/mL (≈ 26.8 µM).
